Results published in ChEMBL document CHEMBL1158259, “Tonkinecin, a novel bioactive annonaceous acetogenin from Uvaria tonkinesis” (J Nat Prod, 1996).

Key:
Type in all cases: functional, cell-based
[1] = system: Bel-7402; experiment: Cytotoxicity against human Bel7402 cells after 5 days by MTT assay; settings: Bel-7402, 120 h
[2] = Cytotoxicity against human BGC cells after 5 days by MTT assay; settings: 120 h
[3] = system: HL-60; experiment: Cytotoxicity against human HL60 cells after 5 days by MTT assay; settings: HL-60, 120 h
[4] = system: HCT-8; experiment: Cytotoxicity against human HCT8 cells after 5 days by MTT assay; settings: HCT-8, 120 h

CCCCCCCCCCCC[C@@H](O)[C@H]1CC[C@H]([C@H](O)CCCCCCCCCCC[C@H](O)CCC2=C[C@H](C)OC2=O)O1 [TONKINECIN]
IC50 [1]: 1500 nM | IC50 [2]: 5100 nM | IC50 [3]: 520 nM | IC50 [4]: 380 nM

COc1cc([C@@H]2c3cc4c(cc3[C@@H](O[C@@H]3O[C@@H]5CO[C@@H](C)O[C@H]5[C@H](O)[C@H]3O)[C@H]3COC(=O)[C@H]23)OCO4)cc(OC)c1O [ETOPOSIDE]
IC50 [1]: 1900 nM | IC50 [2]: 6700 nM | IC50 [3]: 160 nM | IC50 [4]: 6400 nM
